{"source": "patent US20180221435A1", "about": "“ITCH TREATMENT USING A COMBINATION OF NEUROKININ-1, GASTRIN RELEASING PEPTIDE, AND GLUTAMATE RECEPTOR ANTAGONISTS” (The Regents of the University of California, priority 2013, published 2018)", "key": {"[1]": {"test_system": "superficial dorsal horn neurons", "assay": "Baseline activity of superficial dorsal horn neurons before and after antagonist application", "assay_type": "in vivo, mice", "details": "± SEM", "method": "(§1) The single-unit recording from the lumbar spinal cord was conducted as previously detailed [Akiyama T et al., Journal of neurophysiology 102(4):2176-2183 (2009); Akiyama T et al., The Journal of neuroscience: the official journal of the Society for Neuroscience 29(20):6691-6699 (2009)]. Anesthesia was induced by sodium pentobarbital (60 mg/kg ip) and maintained by supplemental injections (10-20 mg/kg/hr). A gravity-driven perfusion system allowed artificial cerebrospinal fluid (Krebs: 117 mM NaCl, 3.6 mM KCl, 2.5 mM CaCl2, 1.2 mM MgCl2, 1.2 mM NaH2PO4, 25 mM NaHCO3 and 11 mM glucose which was equilibrated with 95% 02 and 5% CO2 at 37° C.) to be superfused continually over the exposed lumbosacral spinal cord [Akiyama T et al., PloS one 6(7):e22665 (2011)]. A tungsten microelectrode recorded single-unit activity in the lumbar spinal cord. A chemical search strategy [Akiyama T et al., Journal of neurophysiology 102(4):2176-2183 2009; Akiyama T et al., The Journal of neuroscience: the official journal of the Society for Neuroscience 29(20):6691-6699 (2009)] was used to identify and isolate chloroquine-responsive units. Our search strategy was intended to maximize the chance of isolating a chloroquine-responsive neuron; it was assumed that such neurons either gave rise to ascending projections, or served as interneurons in segmental scratch-reflex circuitry, and no attempt was presently made to distinguish between these possibilities.\nThere was no significant effect of any of the antagonists on the baseline activity of superficial dorsal horn neurons that were subsequently show to respond to pruritogens. […] Values prior to, and after administration of each antagonist individually or in combination, are as follows. NK-1 antagonist L-733060: pre-application 0.88 Hz±0.23 (SEM), post-antagonist 0.72 Hz±0.19 (n=10). GRPR antagonist RC-3095: pre-application 0.54 Hz±0.54, post-antagonist: 0.53 Hz±0.53 (n=4). CNQX: pre-application 0.53 Hz±0.14, post-antagonist 0.64 Hz±0.21 (n=22). CNQX+L-733060: pre-application 0.52 Hz±0.17, post-antagonists 0.43 Hz±0.11 (n=26). CNQX+L-733060+RC-3095: pre-application 0.14 Hz±0.06, post-antagonists 0.17 Hz±0.06 (n=9)."}, "[2]": {"test_system": "superficial dorsal horn neurons", "assay": "In vivo single-unit recording, topical AITC-evoked firing, spinal superfusion of antagonists", "parameters": "species or system mice", "method": "Akiyama T et al., The Journal of neuroscience: the official journal of the Society for Neuroscience 29(20):6691-6699 (2009)]. Anesthesia was induced by sodium pentobarbital (60 mg/kg ip) and maintained by supplemental injections (10-20 mg/kg/hr). […] A tungsten microelectrode recorded single-unit activity in the lumbar spinal cord. A chemical search strategy [Akiyama T et al., Journal of neurophysiology 102(4):2176-2183 2009; […] Following mechanical stimulation, histamine (50 μg) was injected id within the same receptive field at a different location via a separate injection cannula. Following the id histamine injection, we tested the effects of antagonists for the receptors of NK1, GRP, or AMPA/kainate in the same manner as described above for chloroquine. […] Following the AITC application, we tested the effects of the NK-1 receptor antagonist, the AMPA/kainate receptor antagonist, or a combination of both antagonists in the same manner as described above for chloroquine. Action potentials were recorded to a computer and counted using Chart software (AD Instruments, Colorado Springs Colo.) and Spike2 software (CED Instruments). […] Mean peak responses elicited by noxious pinch were compared by one way repeated-measures ANOVA followed by post-hoc Bonferroni test, with p<0.05 set as significant. At the end of each experiment, an electrolytic lesion was made at the spinal cord recording site."}, "[3]": {"test_system": "superficial dorsal horn neurons", "assay": "In vivo single-unit recording, id chloroquine-evoked firing, spinal superfusion of antagonists", "parameters": "species or system mice", "method": "as §1\nBriefly, a small (˜0.25 μl) intradermal (id) microinjection of chloroquine (100 μg/μl) was made in the ventral hindpaw and a spontaneously active unit in the superficial lumbar dorsal horn (depth<300 um) was isolated. After the spontaneous activity had waned, chloroquine (1 μl, 100 μg/μl) was injected again at the same site through the same needle. […] Responses were usually recorded for at least 30 minutes, although in many cases unit firing declined over a shorter period.\nAction potentials were recorded to a computer and counted using Chart software (AD Instruments, Colorado Springs Colo.) and Spike2 software (CED Instruments). Ongoing responses elicited by chloroquine, histamine, or AITC were averaged at 20-second intervals before, during and after the antagonist application, and compared by one way repeated-measures analysis of variance (ANOVA) followed by post-hoc Bonferroni test, with p<0.05 set as significant. The mean firing rate was calculated over a 20-second period 40 seconds after the antagonist application, and compared by one way ANOVA followed by post-hoc Bonferroni test, with p<0.05 set as significant. The criterion for decrease in ongoing firing was >70% decrease below the ongoing activity elicited by pruritogen over a 20-second period 40 seconds after the antagonist application. Mean peak responses elicited by noxious pinch were compared by one way repeated-measures ANOVA followed by post-hoc Bonferroni test, with p<0.05 set as significant. At the end of each experiment, an electrolytic lesion was made at the spinal cord recording site. The spinal cord was postfixed in 10% buffered formalin, cut in 50 μm frozen sections, and examined under the light microscope to identify lesions."}}, "note": "“Also recorded” adds a separate entry of the source."}
{"smiles": "N#Cc1cc2[nH]c(=O)c(=O)[nH]c2cc1[N+](=O)[O-]", "note": "[CNQX]", "values": [{"measurement": "baseline neuronal firing rate, post-antagonist", "setting": "[1]; averaged over 1 min following antagonist application", "value": 0.64, "unit": "Hz"}, {"measurement": "baseline neuronal firing rate, pre-application", "setting": "[1]; averaged over 1 min prior to antagonist application", "value": 0.53, "unit": "Hz"}, {"measurement": "AITC-evoked firing, effect of spinal superfusion", "setting": "[2]; topical AITC 75%", "value": "significantly reduced"}, {"measurement": "Percentages of dorsal horn units that exhibited a decrease of 70% or more in firing rate following spinal superfusion of antagonists", "setting": "[2]; topical AITC-evoked firing, superfusion 1 min, L-733060 200 μM, CNQX 100 μM", "value": "62% (8/15)"}, {"measurement": "chloroquine-evoked firing compared to vehicle superfusion", "setting": "[3]; 40-60 s of superfusion, normalized firing, vs vehicle", "value": "significantly attenuated chloroquine-evoked firing"}, {"measurement": "chloroquine-evoked firing in NS cells", "setting": "[3]; NS units, vs vehicle", "value": "significantly reduced"}, {"measurement": "chloroquine-evoked firing in WDR cells", "setting": "[3]; WDR units, vs vehicle", "value": "significantly reduced"}, {"measurement": "chloroquine-evoked firing, effect of spinal superfusion", "setting": "[3]; relative to chloroquine-evoked response prior to spinal superfusion", "value": "significantly attenuated during and after spinal superfusion; also recorded: reduced"}]}
